Reference: patent US20240239787A1, “COMPOUNDS FOR USE IN THE TREATMENT OF CANCER” (Nanyang Technological University, priority 2021, published 2024)

How the values were obtained:
zebrafish larvae = experiment: Vascularization of vhl mutant and wide type zebrafish larvae (confocal imaging); assay type: in vivo; settings: vhl^hu2117 crosses, 10 μM; non-treatment approximately one quarter
Method: Vasculature zebrafishes were obtained from natural crosses of the AB wild-type strain or vhl^+/hu2117 carriers on the fli1a:egfp^y1 transgenic background (which fluorescently marks the vasculature). JW4 and JQ1-CBT were dissolved in DMSO and the mixture was applied to embryos at equimolar concentration of 10 μM, with J252 (10 μM) and JQ1 (10 μM) used for the control experiments. […] The vascular plexus was imaged on a Zeiss LSM800 confocal microscope. Green: blood vessel tracker, .ex: 488 nm, .em: 520/30 nm; red: . ex: 564 nm, .em: 610/30 nm.

HIF-1α [1] = experiment: HIF-1α level in hypoxic Hela cells (immunofluorescence imaging, Western blot); assay type: cell-based, human
Method: (§1) HeLa, Hek293T, MDA-MB-231, 4T1 or B16F10 cells (1.5×10^6 cells/mL) were treated with J266 (10 μM) for 6 h before incubating with JQ1-CBT at the indicated concentrations and time. This entire incubation was performed in normoxia condition. For NTR-moiety caged JW4, the cells were treated with JW4 (10 μM) 6 h prior to the addition of JQ1-CBT for a subsequent 12 h, and was performed entirely under hypoxic condition. Comparison of the downstream effect between the controls and drug-treated cells were completely executed in hypoxic condition. To work up, the cells were washed with cold PBS (pH 7.4) twice, and lysed with RIPA buffer supplemented with protease inhibitor cocktail and phosphatase inhibitor cocktail for 10 min at 4° C. Then, the lysed cells were collected and centrifuged at 13,500 rpm for 20 min at 4° C. The supernatant was collected and the protein concentration was analyzed by NanoDrop™ 2000/2000c Spectrophotometers. The lysate volumes were fine-tuned and loaded onto a Mini-PROTEAN® TGX™ 4-20% Precast Gel and was separated by SDS-PAGE. Then, the gel was transferred onto a PVDF membrane (100 V, 90 min, 4° C.), washed with TBS-T twice, and blocked with 1% BSA for 1 h at r.t. Next, the membrane was incubated with primary antibody overnight at 4° C., washed thrice with TBS-T, followed by incubation with goat anti-rabbit IgG (H+L) Secondary Antibody, HRP for 1 h. The membrane was supplemented with Radiance Q chemiluminescent ECL substrate and visualized using Amersham™ ImageQuant™ 800 biomolecular imager. B-Tubulin was used as the internal control.
Hela cells were plated at a density of 8×10^4 cells/mL in each well of the eight-well ibidi dishes before experiment. To sustain the hypoxia-induced factor throughout the drug treatment process, drug incubation was performed entirely in hypoxic chamber. […] The fluorescence of the alleviated HIF-1α expression upon drug treatment was visualized with Carl Zeiss LSM 800 microscopes (Hoechst 33258: Ex=405 nm, Em=460/50 nm; Alexa Fluor 488: Ex=488 nm, Em=515/30 nm; Alexa Fluor 594: Ex=561 nm, Em=617/20 nm).

B16F10 mouse melanoma = experiment: Antitumour efficacy in B16F10 tumour bearing C57BL/6J mice; assay type: in vivo; settings: daily treatment, 5 days, vs vehicle
CA9 = CA9 level in hypoxic Hela cells (Western blot); assay type: cell-based, human
Method: as §1, with “The membrane was supplemented with Radiance Q chemiluminescent ECL substrate and visualized using Amersham™ ImageQuant™ 800 biomolecular imager. B-Tubulin was used as the internal control.” left out

HIF-1α [2] = experiment: HIF-1α level in B16F10 tumour lysates of mice (Western blot); assay type: in vivo, mouse; settings: intratumoral 5 mg/kg every 4 h up to 8 h
Method: (§2) B16F10 cells at a density of 2×10^6 cells were injected subcutaneously into the right flank of six- to eight-week-old mice. Once the tumours became palpable, intratumoral injection of the buffer solution as vehicle, JQ1, and JW4 and JQ1-CBT at dosage of 5 mg/kg were performed for every 4 h up to 8 h. The mice were sacrificed and protein extraction were carried out. The protein levels in lysis samples were analysed by western blot by following the protocol in Example 12. Histology and immunofluorescence staining were performed by following the protocol in Example 13. Specifically, the resected tumours were fixed in 4% paraformaldehyde for 48 h, washed with PBS, and gradually transferred to 15% sucrose, followed by 30% sucrose before being embedded in O.C.T. compound. Five-micrometre cryosections of the tumour samples were dehydrated and blocked with a blocking buffer containing 2% BSA, 1% Tween 20, 3% Triton X, and horse serum for an hour before being incubated with primary antibodies, followed by a washing step and then incubation with secondary antibodies. The primary antibodies used were Ki67 and CD31. […] Images were captured using the EVOS M5000 imaging system (Thermo Fischer Scientific, Waltham, MA, USA) and quantified using ImageJ.

BRD4 = target: T1, BRD4 (Mus musculus, UniProt Q9ESU6); experiment: BRD4 level in B16F10 tumour lysates of mice (Western blot); assay type: in vivo; settings: intratumoral 5 mg/kg every 4 h up to 8 h
T1 construct: from tissue; host or cells: B16F10 tumour in C57BL/6J mice, tumour lysate
Excerpt: We further investigated the feasibility of tumour microenvironment-activatable epigenetic BRD4 protein degradation and further validated the potential anti-tumour efficacy of ENCTAC in a C57BL/6J mice model. Typically, we implanted B16F10 mouse melanoma cell line into the right flank of living mice and the solid tumour was monitored to grow until palpable size before undergoing targeted protein disruption and therapeutic studies (FIG. 24a). The living mice bearing tumours were first subject to NTR-Cy7, a reported NTR enzyme responsive probe molecule (Li, Y. et al., J. Am. Chem. Soc. 2015, 137, 6407-[…]), followed by animal imaging scanning.
B16F10 cells at a density of 2×10^6 cells were injected subcutaneously into the right flank of six- to eight-week-old mice. Once the tumours became palpable, intratumoral injection of the buffer solution as vehicle, JQ1, and JW4 and JQ1-CBT at dosage of 5 mg/kg were performed for every 4 h up to 8 h. The mice were sacrificed and protein extraction were carried out. The protein levels in lysis samples were analysed by western blot by following the protocol in Example 12. Histology and immunofluorescence staining were performed by following the protocol in Example 13. […] Images were captured using the EVOS M5000 imaging system (Thermo Fischer Scientific, Waltham, MA, USA) and quantified using ImageJ.

c-Myc = c-Myc level in B16F10 tumour lysates of mice (Western blot); assay type: in vivo, mouse; settings: intratumoral 5 mg/kg every 4 h up to 8 h
Method: as §2

Compound: Cc1sc2c(c1C)C(c1ccc(Cl)cc1)=N[C@@H](CC(=O)OC(C)(C)C)c1nnc(C)n1-2 [JQ1]
- vascularized larvae (zebrafish larvae): 21.3%
- HIF-1α protein level (HIF-1α [1]): did not alter
- tumour progression (serial volumetric measurement) (B16F10 mouse melanoma): reduced tumour growth
- CA9 amount (CA9): partially downgrade
- HIF-1α protein level in tumour (HIF-1α [2]): trivial effect
- BRD4 protein level in tumour (BRD4): trivial effect
- c-Myc expression in tumour (c-Myc): downgrade c-Myc expression
